Measured values reported in patent US20100087432A1, “PYRROLE DERIVATIVES HAVING CRTH2 RECEPTOR ANTAGONIST ACTIVITY” (priority 2004, published 2010).

Legend:
[1] = target: T1, human CRTh2 (Homo sapiens, UniProt Q9Y5Y4); assay: Filtration binding assay ([3H]-PGD2 competition on CHO.K1-CRTh2 membranes); conditions: [3H]-PGD2 2.5 nM, Cheng-Prussoff
T1 sequence (Q9Y5Y4 1-395): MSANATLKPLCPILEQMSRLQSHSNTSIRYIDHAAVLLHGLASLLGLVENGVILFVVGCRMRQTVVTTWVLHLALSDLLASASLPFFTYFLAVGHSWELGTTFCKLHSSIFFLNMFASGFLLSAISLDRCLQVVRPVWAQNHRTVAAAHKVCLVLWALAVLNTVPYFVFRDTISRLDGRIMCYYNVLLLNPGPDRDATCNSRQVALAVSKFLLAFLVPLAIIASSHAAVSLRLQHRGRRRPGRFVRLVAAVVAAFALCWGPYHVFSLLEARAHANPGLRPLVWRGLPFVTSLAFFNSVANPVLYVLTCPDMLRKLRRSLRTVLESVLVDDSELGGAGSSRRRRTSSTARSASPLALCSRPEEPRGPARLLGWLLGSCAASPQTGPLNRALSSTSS
Description: The binding of CRTh2 antagonists is determined using membranes prepared from human CRTh2-expressing Chinese Hamster Ovary cells (CHO.K1-CRTh2). To produce cell membranes CHO.K1-CRTh2 cells cultured in roller bottles are harvested using cell dissociation buffer (Invitrogen). The cells are pelleted by centrifugation (167 g, 5 min). The cell pellet is incubated in hypotonic buffer (15 mM Tris-OH, 2 mM MgCl2, 0.3 mM EDTA, 1 mM EGTA, 1×Complete™ tablet) at 4° C. for 30 minutes. At 4° C. cells are homogenized using a Polytron® (IKA Ultra Turrax T25) for 5 bursts of 1 second. The homogenate is centrifuged (Beckman Optima TM TL Ultracentrifuge, 48000 g, 30 minutes at 4° C.). The supernatant is discarded and the membrane pellet re-suspended in homogenisation buffer (75 mM Tris-OH, 12.5 mM MgCl2, 0.3 mM EDTA, 1 mM EGTA, 250 mM Sucrose, 1×Complete™ tablet. Membrane preparations are aliquoted and stored at […]. The protein content is estimated using Bradford Protein Assay Dye (Bio Rad).
The binding of [^3H]-PGD2 (157 Ci/mmol) to CHO.K1-CRTh2 membranes is determined in the absence (total binding) and presence (non-specific binding) of unlabelled PGD2 (1 μM). Subtraction of the cpm (counts per minute) of [^3H]-PGD2 binding in presence of excess unlabelled PGD2 from that observed in the absence of excess unlabelled PGD2 is defined as specific binding. Active CRTh2 antagonists are able to compete with [^3H]-PGD2 for binding to the CRTh2 receptor and are identified in a decrease in the number of cpm bound.
The assay is performed in Greiner U-bottomed 96 well-plates, in a final volume of 100 μL per well. CHO.K1-CRTh2 membranes were diluted in assay buffer (10 mM HEPES-KOH (pH 7.4), 1 mM EDTA and 10 mM MnCl2) and 10 μg are added to each well [^3H]-PGD2 is diluted in assay buffer and added to each well at a final concentration of 2.5 nM. To determine non-specific binding, [^3H]-PGD2 binding to the CRTh2 receptor is competed with using unlabelled PGD2 at a final well concentration of 1 μM. The experiment is done in triplicate, with reagents added to the wells as follows: • 25 μL assay buffer for total binding or • 25 μL PGD2 to determine non-specific binding • 25 μL [^3H]PGD2 • […] • 25 μL test compound in DMSO/assay buffer
The plates are incubated at room temperature on a shaker for 1 hour, and then harvested (Tomtec Harvester 9600) onto GF/C filter plates using wash buffer (10 mM HEPES-KOH, pH 7.4). The plate is dried for 2 hours, prior to addition of Micro-Scint 20™ (50 μL) and sealing with TopSeal-S™. Plates are then counted using a Packard Top Count instrument, Plates are then read on the Packard Topcount with the 3H Scintillation program (1 min./well).
Ki (dissocation constant for the inhibition) values for the CRTh2 antagonists are reported. Ki values are determined using Sigma Plot™ software, using the Cheng-Prussoff equation.
(§1) where S is the concentration of radioligand and Kd is the dissociation constant. CRTH2 cAMP Functional Assay Protocol

[2] = target: T1, human CRTh2; assay: CRTH2 cAMP functional assay in CHO.K1-CRTh2 cells; assay type: cell-based; conditions: inhibition of PGD2-mediated attenuation of forskolin-induced cAMP accumulation in CHO.K1-CRTh2 cells
Description: as §1
This assay is conducted in CHO.K1-CRTh2 cells. cAMP is generated in the cell by stimulating cells with 5 μM forskolin, an adenylate cyclase activator. PGD2 is added to activate the CRTh2 receptor which results in the attenuation of the forskolin-induced cAMP accumulation. Potential CRTh2 antagonists are tested for their ability to inhibit the PGD2− mediated attenuation of the forskolin-induced cAMP accumulation in CHO.K1-CRTh2 cells.
For each concentration value on the dose-response curve, test compounds are prepared in assay stimulation buffer (HBSS, 5 mM HEPES, 10 μM IBMX ±0.1% human serum albumin) containing DMSO (3% vol/vol) and 5 μL/well is added to an assay plate (384 well white optiplate).
CHO.K1-CRTh2 cultured in tissue culture flasks are washed with PBS and harvested with dissociation buffer. Cells are washed with PBS and re-suspended in stimulation buffer to a concentration of 0.4×10^6/mL and added to the assay plate (10 μL/well).
The assay plate is incubated at room temperature on a shaker for 15 minutes.
A mix of agonist (10 nM Prostaglandin D2) and 5 μM forskolin is prepared in assay stimulation buffer and added to the assay plate (5 μL/well).
In addition, a cAMP standard is serially diluted in assay stimulation buffer and added to separate empty wells on the assay plate (20 μL/well). The cAMP standard allows for the quantification of cAMP generated in CHO.K1-CRTH2 cells.
The assay plate is incubated at room temperature on a shaker for 60 minutes.
Cell lysis buffer (Lysis buffer: Milli-Q H2O, 5 mM HEPES, 0.3% Tween-20, 0.1% human serum albumin) is added to a bead mix (containing Alphascreen™ anti-cAMP acceptor beads 0.06 units/μL, Alphascreen™ streptavidin-coated donor beads 0.06 units/μL, biotinylated cAMP 0.06 units/μL, 10 μM IBMX) is prepared under darkened conditions 60 minutes prior to addition to the assay plate. The resulting lysis mix is added to all wells of the assay plate (40 μL/well).
The assay plate is sealed with Topseal-S™ and incubated in the dark at room temperature on a shaker for 45 minutes. The plate is then counted using a Packard Fusion™ instrument.
The resulting counts per minute are converted to nM cAMP by using the prepared cAMP standard curve. IC50 values (concentration of CRTh2 antagonist required to inhibit 50% of the PGD2-mediated attenuation of forskolin-induced cAMP accumulation in CHO.K1-CRTh2 cells) are then determined using Prism™ software.

| Compound | Ki [1] | IC50 [2] |
| --- | --- | --- |
| N#Cc1cn(CC(=O)O)cc1-c1cc(C(F)(F)F)cc(C(F)(F)F)c1 [Example 1, [3-(3,5-Bis-Trifluoromethyl-Phenyl)-4-Cyano-Pyrrol-1-yl]-Acetic Acid] | 10 nM | 28 nM |
| N#Cc1cn(CC(=O)O)cc1-c1cc(Cl)cc(Cl)c1 [Example 2, [3-Cyano-4-(3,5-Dichloro-Phenyl)-Pyrrol-1-yl]-Acetic Acid] | 34 nM | 57 nM |
| N#Cc1cn(CC(=O)O)cc1-c1cccc2c1OC(F)(F)O2 [Example 3] | 244 nM | 846 nM |
| N#Cc1cn(CC(=O)O)cc1-c1cccc(Cl)c1 [Example 8, [3-(3-Chloro-phenyl)-4-cyano-pyrrol-1-yl]-acetic acid] | 163 nM | 255 nM |
| N#Cc1cn(CC(=O)O)cc1-c1cccc(C(F)(F)F)c1 [Example 12, [3-Cyano-4-(3-trifluoromethyl-phenyl)-pyrrol-1-yl]-acetic acid] | 172 nM | 69 nM |
| N#Cc1cn(CC(=O)O)cc1-c1cc(Cl)ccc1Cl [Example 15, [3-Cyano-4-(2,5-dichloro-phenyl)-pyrrol-1-yl]-acetic acid] | 144 nM | 282 nM |
| N#Cc1cn(CC(=O)O)cc1-c1cc(C(F)(F)F)ccc1Cl [Example 17, [3-(2-Chloro-5-trifluoromethyl-phenyl)-4-cyano-pyrrol-1-yl]-acetic acid] | 89 nM | 161 nM |
| N#Cc1cn(CC(=O)O)cc1-c1cc(C(F)(F)F)ccc1C(F)(F)F [Example 21, [3-(2,5-Bis-trifluoromethyl-phenyl)-4-cyano-pyrrol-1-yl]-acetic acid] | 96 nM | 147 nM |
| N#Cc1cn(CC(=O)O)cc1-c1cc(C(F)(F)F)cc(Cl)c1F [Example 25, [3-(3-Chloro-2-fluoro-5-trifluoromethyl-phenyl) -4-cyano-pyrrol-1-yl]-acetic acid] | 40 nM | 25 nM |
| N#Cc1cn(CC(=O)O)cc1-c1cc(C(F)(F)F)cc(S(=O)(=O)N2CCCCC2)c1 [Example 40, {3-Cyano-4-[3-(Piperidine-1-Sulfonyl)-5-Trifluoromethyl-Phenyl]Pyrrol-1-yl}-Acetic Acid] | 2 nM | 12 nM |
| N#Cc1cn(CC(=O)O)cc1-c1cc(C(F)(F)F)cc(S(=O)(=O)N2CCCC2)c1 [Example 42, {3-cyano-4-[3-(pyrrolidine-1-sulfonyl)-5-trifluoromethyl-phenyl]-pyrrol-1-yl}-acetic acid] | 6 nM | 17 nM |
| CCCCNS(=O)(=O)c1cc(-c2cn(CC(=O)O)cc2C#N)cc(C(F)(F)F)c1 [Example 45, [3-(3-butylsulfamoyl-5-trifluoromethyl-phenyl)-4-cyano-pyrrol-1-yl]-acetic acid] | 6 nM | 16 nM |
| N#Cc1cn(CC(=O)O)cc1-c1cc(C(F)(F)F)cc(S(=O)(=O)NC2CCC2)c1 [Example 50, [3-cyano-4-(3-cyclobutylsulfamoyl-5-trifluoromethyl-phenyl)-pyrrol-1-yl]-acetic acid] | 4 nM | 9 nM |
| N#Cc1cn(CC(=O)O)cc1-c1cc(Cl)cc(S(=O)(=O)N2CCCCC2)c1 [Example 53, {3-[3-Chloro-5-(Piperidine-1-Sulfonyl)-Phenyl]-4-Cyano-Pyrrol-1-yl}-Acetic Acid] | 2 nM | 46 nM |
| CN(C)S(=O)(=O)c1cc(-c2cn(CC(=O)O)cc2C#N)cc(C(F)(F)F)c1 [Example 64, [3-Cyano-4-(3-Dimethylsulfamoyl-5-Trifluoromethyl-Phenyl)-Pyrrol-1-yl]-Acetic Acid] | 42 nM | 14 nM |
